From US20250345284A1, “LIPID NANOPARTICLE (LNP) COMPOSITIONS AND METHODS OF USE THEREOF” (The Trustees Of The University of Pennsylvania, priority 2021, published 2025)

Experiments:
[1] = Z-average diameter and polydispersity index by dynamic light scattering (Zetasizer Nano); format: physicochemical; conditions: LNPs with 12.5%, 25% and 50% substitution of the named hydroxycholesterol
[2] = Stability of 100% hydroxycholesterol substitution LNPs over 28 days; conditions: 100% substitution of hydroxycholesterol for cholesterol, vs S2
Description: FIG. 8B depicts measurements of z-average diameter, PDI, mRNA concentration, and encapsulation efficiency for S2 LNPs and LNP formulations with 100% cholesterol substitution taken over 28 days to assess LNP stability. […] Error bars denote standard deviation. FIG. 8C depicts the pKa, zeta potential, z-average diameter, and PDI measurements for the exemplary LNPs of the present disclosure. n=3. Error bars denote standard deviation.
Characterization parameters assessed over the 28-day period include z-average diameter, PDI, mRNA concentration, and encapsulation efficiency (Table 3).

Compound: CC(C)CCC[C@@H](C)[C@H]1CC[C@H]2[C@@H]3[C@H](O)C=C4C[C@@H](O)CC[C@]4(C)[C@H]3CC[C@]12C [A1, 7α-hydroxycholesterol]
- PDI (in words) [1]: remained within expected ranges
- z-average diameter (in words) [1]: remained within expected ranges
- stability (all characterization parameters) [2]: comparable on all parameters on all days to S2

Compound: CC(C)CCC[C@@H](C)[C@H]1CC[C@H]2[C@@H]3[C@@H](O)C=C4C[C@@H](O)CC[C@]4(C)[C@H]3CC[C@]12C [A2, 7β-hydroxycholesterol]
- PDI (in words) [1]: remained within expected ranges
- z-average diameter (in words) [1]: remained within expected ranges
- stability (all characterization parameters) [2]: comparable on all parameters on all days to S2

Compound: CC(C)CCC[C@@H](C)[C@H]1CC[C@H]2[C@@H]3CC=C4C[C@@H](O)CC[C@]4(CO)[C@H]3CC[C@]12C [A3, 19-hydroxycholesterol]
- PDI (in words) [1]: remained within expected ranges
- z-average diameter (in words) [1]: remained within expected ranges

Compound: CC(C)CCC[C@](C)(O)[C@H]1CC[C@H]2[C@@H]3CC=C4C[C@@H](O)CC[C@]4(C)[C@H]3CC[C@@]21C [B1, 20 (S)-hydroxycholesterol]
- PDI (in words) [1]: remained within expected ranges
- z-average diameter (in words) [1]: remained within expected ranges
- stability (all characterization parameters) [2]: comparable on all parameters on all days to S2

Compound: CC(C)[C@@H](O)CC[C@@H](C)[C@H]1CC[C@H]2[C@@H]3CC=C4C[C@@H](O)CC[C@]4(C)[C@H]3CC[C@]12C [B2, 24 (S)-hydroxycholesterol]
- PDI (in words) [1]: more polydisperse
- z-average diameter (in words) [1]: increased particle diameters

Compound: C[C@H](CCCC(C)(C)O)[C@H]1CC[C@H]2[C@@H]3CC=C4C[C@@H](O)CC[C@]4(C)[C@H]3CC[C@]12C [B3, 25-hydroxycholesterol]
- PDI (in words) [1]: more polydisperse
- z-average diameter (in words) [1]: increased particle diameters
